Test results as given in ChEMBL document CHEMBL1201862, “PubChem BioAssay data set” (2004).
Activity calls are given as the source filed them.

Assays:
[1] = MIN6 cell viability loss – mouse insulinoma, cytotoxicity control, dose response (AID 2122); assay type: functional;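 further: confirmatory high-throughput counterscreen run to flag cytotoxic compounds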
[2] = decrease of insulin promoter-GFP reporter – imaging, high-content screening, mouse beta cells (AID 1628); assay type: functional; settings: MIN6
HEK293 [3] = assay: HEK293T cell viability loss, resazurin readout – resazurin fluorescence, cytotoxicity control for NF-kB activator project, SAR follow-up (AID 493251); assay type: functional, cell-based; settings: Homo sapiens
Jurkat [4] = assay: SAR Analysis of small molecule inhibitors of […] specific antigen receptor-induced NF-kB activation in a Jurkat cell line using a luminescence assay - Set 3. [Related pubchem assays (depositor defined):AID435022, AID435025, AID465]; assay type: functional, cell-based; settings: Homo sapiens
HEK293 [5] = assay: SAR Analysis of small molecule inhibitors of B-cell specific antigen receptor-induced NF-kB activation in a HEK-293T cell line using a luminescence assay - Set 2. [Related pubchem assays (depositor defined):AID435022, AID435025, AID489021]; assay type: functional, cell-based; settings: Homo sapiens
[6] = viability loss of HMLE_sh_eGFP cells – cell-based, luminescence, counter-screen for HMLE_sh_ECad selective toxicity project, dose response (AID 463074); assay type: functional, Homo sapiens;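 further: HMLE human mammary epithelial cells expressing control shRNA against eGFP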
[7] = Luminescence Cell-Based Dose Retest to Confirm Inhibitors of Cancer Stem Cells. [Related pubchem assays (depositor defined):AID2717, AID2721]; assay type: functional; settings: Homo sapiens
[8] = molecular target: T1, High affinity choline transporter 1 (Homo sapiens, UniProt Q9GZV3); assay: human choline transporter blockers, potency – cell-based, 5-point CRC, membrane potential dye, dose response (AID 504840); assay type: functional
T1 sequence (Q9GZV3 whole entry): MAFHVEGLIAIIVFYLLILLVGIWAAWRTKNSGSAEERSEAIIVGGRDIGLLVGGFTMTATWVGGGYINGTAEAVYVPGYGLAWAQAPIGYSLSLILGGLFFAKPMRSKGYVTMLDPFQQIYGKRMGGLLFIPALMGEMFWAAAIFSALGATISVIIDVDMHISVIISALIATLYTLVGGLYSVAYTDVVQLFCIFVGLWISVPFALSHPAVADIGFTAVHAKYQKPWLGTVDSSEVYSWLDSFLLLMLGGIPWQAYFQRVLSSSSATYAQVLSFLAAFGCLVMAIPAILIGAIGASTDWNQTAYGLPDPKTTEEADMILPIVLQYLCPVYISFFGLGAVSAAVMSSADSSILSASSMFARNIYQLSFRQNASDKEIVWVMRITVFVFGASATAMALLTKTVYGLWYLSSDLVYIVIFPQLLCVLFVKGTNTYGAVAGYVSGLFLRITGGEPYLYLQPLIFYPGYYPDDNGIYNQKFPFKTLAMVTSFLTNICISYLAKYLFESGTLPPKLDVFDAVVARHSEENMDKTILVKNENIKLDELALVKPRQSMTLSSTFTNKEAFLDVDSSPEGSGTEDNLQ

BJ [9] = assay: BJ-TERT fibroblast viability loss – cell-based, RAS-independent, luminescence, dose response (AID 1933); assay type: functional; settings: Homo sapiens
Galanin receptor type 3 = Galanin receptor type 3 (Homo sapiens, UniProt O60755); assay: Fluorescence-based cell-based primary high throughput dose response assay to identify antagonists of the Galanin Receptor 3 (GalR3).; assay type: functional
INS1 = assay: INS-1E survival protection against cytokine death – cell-based, luminescence, retest, dose response (AID 449756); assay type: functional; settings: Rattus norvegicus;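 further: cell death triggered by IL-1 beta plus TNF-alpha plus IFN-gamma mixture; protective hits raise ATP signal compared with cytokine alone wells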
[10] = molecular target: Heat shock protein HSP 90-alpha (Homo sapiens, UniProt P07900); assay type: functional, organism-based
BJ [11] = assay: cells; assay type: functional, cell-based; settings: Homo sapiens
Streptokinase A = molecular target: T2, Streptokinase A (Streptococcus pyogenes serotype M1, UniProt P10520); assay: viability-normalized secreted streptokinase activity reduction – plasminogen activation absorbance, OD405, dose response (AID 1914); assay type: functional, Streptococcus pyogenes M1 GAS;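 further: secreted streptokinase activity via plasminogen activation per viability signal from cell pellet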
T2 sequence (P10520 whole entry): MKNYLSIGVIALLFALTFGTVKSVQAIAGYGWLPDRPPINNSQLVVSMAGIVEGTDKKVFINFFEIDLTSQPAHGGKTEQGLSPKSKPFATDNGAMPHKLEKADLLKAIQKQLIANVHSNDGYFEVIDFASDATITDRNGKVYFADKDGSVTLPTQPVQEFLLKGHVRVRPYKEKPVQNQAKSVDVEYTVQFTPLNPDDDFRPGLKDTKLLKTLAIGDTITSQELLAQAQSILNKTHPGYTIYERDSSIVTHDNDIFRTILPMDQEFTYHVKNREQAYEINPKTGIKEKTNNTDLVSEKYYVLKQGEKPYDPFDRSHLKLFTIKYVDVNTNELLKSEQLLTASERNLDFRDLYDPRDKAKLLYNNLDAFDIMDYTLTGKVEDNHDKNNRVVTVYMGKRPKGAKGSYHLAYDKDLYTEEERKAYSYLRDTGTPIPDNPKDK

[12] = DRD fibroblast viability loss – cell-based, non-viral oncogenic, luminescence, dose response (AID 1934); assay type: functional; settings: Homo sapiens
Jurkat [13] = assay: blockers of NF-kB activation in T cells – Jurkat, luciferase reporter, luminescence, B- and T-cell, dose response (AID 489004); assay type: functional, cell-based; settings: Homo sapiens;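 further: NF-kB luciferase reporter Jurkat cells stimulated with PMA plus ionomycin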
[14] = HEK-293T viability loss, compound-treated – cell-based, uHTS hits, cytotoxicity control for B/T-cell NF-kB inhibitor project, dose response (AID 489019); assay type: functional;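 further: IC50 reflects cytotoxicity as loss of cell viability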
[15] = test system: Streptococcus sp. 'group A'; assay: Streptococcus pyogenes SK(-)GAS viability under kanamycin – luminescence, BacTiterGlo, confirmation, counter-screen for streptokinase expression inhibitor project, dose response (AID 1900); assay type: functional, organism-based
BJ [16] = assay: BJ-TERT-LT-ST fibroblast viability loss – cell-based, RAS-independent, luminescence, dose response (AID 1935); assay type: functional; settings: Homo sapiens;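 further: BJ fibroblasts immortalized with TERT plus LT and ST oncogenes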
Streptococcus = assay: GAS UMAA2166 growth inhibition – luminescence, BacTiterGlo, counter-screen for streptokinase expression inhibitor project, dose response (AID 1915); assay type: functional, organism-based;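 further: potency for reduction of bacterial viability or growth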
BJ [17] = assay: growth inhibition of engineered Ras-driven BJ cells – cell-based, alamar blue fluorescence, cherrypicked samples, dose response (AID 2631); assay type: functional; settings: Homo sapiens;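 further: confirmatory dose-response assay in RAS-dependent BJ fibroblasts engineered with TERT, LT and ST, with cytotoxicity read by fluorescence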
Paired box protein Pax-8 = Paired box protein Pax-8 (Homo sapiens, UniProt Q06710); assay: PAX8 transcriptional activity inhibition in RMG-I – RMG-I cells, luciferase, cherry-pick, dose response (AID 687027); assay type: functional, cell-based;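 further: luciferase reporter driven by Pax8 target thyroperoxidase promoter measured by SteadyGlo luminescence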
cells [18] = assay type: functional, cell-based; settings: HEK-CNG
[19] = molecular target: T3, DNA repair protein RAD52 homolog (Homo sapiens, UniProt P43351); assay type: functional, biochemical
T3 sequence (P43351 whole entry): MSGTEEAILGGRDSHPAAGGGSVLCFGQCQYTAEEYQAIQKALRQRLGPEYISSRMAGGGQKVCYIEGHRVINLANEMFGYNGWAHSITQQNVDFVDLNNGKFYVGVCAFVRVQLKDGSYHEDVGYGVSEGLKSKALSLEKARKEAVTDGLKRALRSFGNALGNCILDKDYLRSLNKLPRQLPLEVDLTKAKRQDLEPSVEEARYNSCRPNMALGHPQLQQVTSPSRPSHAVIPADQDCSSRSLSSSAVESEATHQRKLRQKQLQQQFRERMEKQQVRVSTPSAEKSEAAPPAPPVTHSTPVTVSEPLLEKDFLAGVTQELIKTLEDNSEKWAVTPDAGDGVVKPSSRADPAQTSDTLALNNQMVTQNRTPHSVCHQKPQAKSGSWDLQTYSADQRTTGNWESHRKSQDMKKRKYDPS

cells [20] = assay type: functional
CAAX prenyl protease 1 = CAAX prenyl protease 1 (Saccharomyces cerevisiae S288c, UniProt P47154); assay: yeast CAAX protease Ste24 inhibition – biochemical, S. cerevisiae, plate reader, cherry-pick, dose response (AID 488815)
CAAX prenyl protease 2 = molecular target: T4, CAAX prenyl protease 2 (Homo sapiens, UniProt Q9Y256); assay: inhibition of Ras-converting CAAX protease Rce1 – biochemical, yeast membranes, quenched-peptide fluorescence, cherry-pick, dose response (AID 588849)
T4 sequence (Q9Y256 whole entry): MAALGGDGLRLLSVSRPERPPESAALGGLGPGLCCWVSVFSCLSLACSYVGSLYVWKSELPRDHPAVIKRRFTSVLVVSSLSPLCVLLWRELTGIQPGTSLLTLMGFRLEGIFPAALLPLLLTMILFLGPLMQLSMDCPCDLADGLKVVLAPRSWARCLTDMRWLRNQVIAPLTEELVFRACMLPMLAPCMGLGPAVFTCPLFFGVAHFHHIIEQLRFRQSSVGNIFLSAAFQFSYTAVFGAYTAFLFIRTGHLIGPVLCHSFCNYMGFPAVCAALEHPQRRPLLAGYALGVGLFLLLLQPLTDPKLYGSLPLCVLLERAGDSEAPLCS

[21] = Vero E6 cell cytotoxicity, dose response, cytotoxicity control for non-replicating M. tuberculosis project, secondary assay (AID 492998); assay type: functional, VeroE6; settings: Vero C1008
Trypsin = Trypsin (Sus scrofa, UniProt P00761); assay: trypsin protease activity blockade – biochemical, quenched peptide fluorescence, cherry-pick, selectivity assay for Rce1 protease inhibitor project, dose response (AID 488789)
[22] = HepG2 cell cytotoxicity, dose response, cytotoxicity control for non-replicating M. tuberculosis project (AID 489018); assay type: functional; settings: Mycobacterium tuberculosis
Estrogen receptor = molecular target: T5, Estrogen receptor (Homo sapiens, UniProt P03372);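 further: potency for inhibiting coactivator peptide recruitment to the receptor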
T5 sequence (P03372 whole entry): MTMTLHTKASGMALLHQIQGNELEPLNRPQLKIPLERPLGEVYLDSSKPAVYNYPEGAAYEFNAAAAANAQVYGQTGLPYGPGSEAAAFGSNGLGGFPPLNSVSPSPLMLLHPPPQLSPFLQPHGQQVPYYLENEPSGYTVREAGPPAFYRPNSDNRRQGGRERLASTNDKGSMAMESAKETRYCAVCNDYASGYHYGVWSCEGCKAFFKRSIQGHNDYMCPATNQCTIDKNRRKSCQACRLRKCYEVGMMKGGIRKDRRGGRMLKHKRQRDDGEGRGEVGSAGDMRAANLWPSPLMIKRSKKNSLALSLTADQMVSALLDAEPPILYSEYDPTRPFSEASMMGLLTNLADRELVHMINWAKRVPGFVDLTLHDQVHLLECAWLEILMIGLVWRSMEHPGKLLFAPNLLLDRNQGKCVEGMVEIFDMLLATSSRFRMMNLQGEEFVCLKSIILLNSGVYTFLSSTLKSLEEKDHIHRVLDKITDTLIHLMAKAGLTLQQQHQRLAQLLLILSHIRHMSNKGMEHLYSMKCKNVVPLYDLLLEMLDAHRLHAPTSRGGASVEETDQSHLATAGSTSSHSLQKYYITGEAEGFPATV

[23] = NIH-3T3 fibroblast cytotoxicity, dose response, cytotoxicity control, cell-based, fluorescence, Alamar Blue, secondary assay (AID 2327); assay type: functional;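 further: NIH-3T3 mouse fibroblasts cultured with fluconazole at 8 µg/mL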
[24] = THP-1 cell cytotoxicity, dose response, cytotoxicity control for non-replicating M. tuberculosis project (AID 489025); assay type: functional
[25] = fluconazole-exposed Candida albicans growth modulators – fluorescence, retest, confirmation (AID 2467); assay type: functional, cell-based
[26] = molecular target: Dual specificity protein phosphatase 3 (Homo sapiens, UniProt P51452); assay: SAR VHR1 Fluorescent Assay for In Vitro dose response studies Set 3. [Related pubchem assays (depositor defined):AID1654, AID1661, AID1878]; assay type: functional
Cytochrome P450 1A2 = molecular target: T6, Cytochrome P450 1A2 (Homo sapiens, UniProt P05177);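 further: PubChem cytochrome P450 panel assay, CYP1A2 panel member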
T6 sequence (P05177 whole entry): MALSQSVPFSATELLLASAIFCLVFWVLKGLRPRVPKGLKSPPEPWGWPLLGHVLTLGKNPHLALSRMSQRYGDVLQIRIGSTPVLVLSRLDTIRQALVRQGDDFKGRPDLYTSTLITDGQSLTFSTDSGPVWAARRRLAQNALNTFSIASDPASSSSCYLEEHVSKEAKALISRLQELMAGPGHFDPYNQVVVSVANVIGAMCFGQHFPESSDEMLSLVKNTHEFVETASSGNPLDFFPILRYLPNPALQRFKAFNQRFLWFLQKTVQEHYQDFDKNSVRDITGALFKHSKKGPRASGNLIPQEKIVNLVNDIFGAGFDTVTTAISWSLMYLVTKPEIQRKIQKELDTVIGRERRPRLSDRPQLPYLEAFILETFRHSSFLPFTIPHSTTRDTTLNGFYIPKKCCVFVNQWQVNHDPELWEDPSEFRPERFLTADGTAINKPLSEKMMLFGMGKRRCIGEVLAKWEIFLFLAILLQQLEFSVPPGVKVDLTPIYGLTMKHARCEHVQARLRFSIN

Chain of Dual specificity protein phosphatase 3 (P51452 whole entry): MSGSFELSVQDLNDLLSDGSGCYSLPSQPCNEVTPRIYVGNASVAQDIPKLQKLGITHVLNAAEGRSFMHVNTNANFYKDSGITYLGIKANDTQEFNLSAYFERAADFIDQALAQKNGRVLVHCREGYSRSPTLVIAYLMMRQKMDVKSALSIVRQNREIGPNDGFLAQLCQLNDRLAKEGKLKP
Chain of CAAX prenyl protease 1 (P47154 whole entry): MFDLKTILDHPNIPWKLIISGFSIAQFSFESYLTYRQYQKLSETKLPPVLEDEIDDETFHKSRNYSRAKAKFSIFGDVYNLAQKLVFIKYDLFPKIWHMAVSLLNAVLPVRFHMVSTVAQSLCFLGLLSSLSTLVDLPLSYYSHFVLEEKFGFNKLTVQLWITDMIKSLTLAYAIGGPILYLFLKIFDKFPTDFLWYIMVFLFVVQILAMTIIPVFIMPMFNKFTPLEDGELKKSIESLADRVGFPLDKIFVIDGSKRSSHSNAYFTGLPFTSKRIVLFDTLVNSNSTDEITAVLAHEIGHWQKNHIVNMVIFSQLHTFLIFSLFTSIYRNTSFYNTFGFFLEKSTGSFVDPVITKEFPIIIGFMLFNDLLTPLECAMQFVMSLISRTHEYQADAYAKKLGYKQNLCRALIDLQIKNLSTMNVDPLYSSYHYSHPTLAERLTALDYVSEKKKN
Chain of Trypsin (P00761 whole entry): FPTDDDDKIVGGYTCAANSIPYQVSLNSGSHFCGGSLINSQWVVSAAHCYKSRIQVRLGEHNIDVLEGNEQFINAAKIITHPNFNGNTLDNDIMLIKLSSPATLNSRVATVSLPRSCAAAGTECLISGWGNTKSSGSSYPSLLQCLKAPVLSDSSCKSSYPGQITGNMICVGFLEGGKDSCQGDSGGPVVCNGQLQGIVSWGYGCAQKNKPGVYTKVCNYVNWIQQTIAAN
Chain of Paired box protein Pax-8 (Q06710 whole entry): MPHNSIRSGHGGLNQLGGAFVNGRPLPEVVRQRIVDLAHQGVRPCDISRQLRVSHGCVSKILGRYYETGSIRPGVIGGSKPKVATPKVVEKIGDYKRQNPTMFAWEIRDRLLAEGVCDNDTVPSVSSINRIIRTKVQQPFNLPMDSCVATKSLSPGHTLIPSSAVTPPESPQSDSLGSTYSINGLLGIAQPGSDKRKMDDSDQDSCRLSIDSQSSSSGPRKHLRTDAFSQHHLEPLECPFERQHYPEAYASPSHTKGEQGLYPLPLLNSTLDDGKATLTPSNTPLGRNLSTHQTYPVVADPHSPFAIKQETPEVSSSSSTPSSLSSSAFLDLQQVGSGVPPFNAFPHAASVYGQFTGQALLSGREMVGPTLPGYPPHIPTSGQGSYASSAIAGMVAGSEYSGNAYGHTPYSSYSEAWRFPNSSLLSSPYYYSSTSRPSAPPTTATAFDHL
Chain of Galanin receptor type 3 (O60755 whole entry): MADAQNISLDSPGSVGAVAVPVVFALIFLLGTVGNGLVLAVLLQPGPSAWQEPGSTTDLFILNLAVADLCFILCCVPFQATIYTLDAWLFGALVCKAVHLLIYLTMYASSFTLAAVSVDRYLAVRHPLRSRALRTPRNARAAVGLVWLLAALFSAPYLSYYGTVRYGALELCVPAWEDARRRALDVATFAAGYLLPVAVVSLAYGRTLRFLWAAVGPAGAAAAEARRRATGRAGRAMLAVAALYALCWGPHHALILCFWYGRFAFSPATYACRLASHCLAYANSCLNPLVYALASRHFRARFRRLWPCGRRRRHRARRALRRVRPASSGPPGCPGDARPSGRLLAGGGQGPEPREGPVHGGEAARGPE

Nc1c2c(nc3ccc(Br)cc13)N(C1CCCCC1)CC2
IC50 [1]: 4.61 µM (active)
IC50 [2]: 3.06 µM (active)

CC(C)(C)c1ccc(-c2noc(CCC(=O)Nc3ccccc3)n2)cc1
IC50 (HEK293 [3]): > 80 µM (inactive)
IC50 (Jurkat [4]): 0.473 µM (active)
IC50 (HEK293 [5]): 0.23 µM (active)

COc1ccc(CN(C)c2ncnc3sccc23)c(OC)c1OC
AC50 [6]: 27.4 µM (active)
AC50 [7]: 15.8 µM (active)
IC50 [8]: 13.8 µM (active)

CCCCCCCCCCCCn1ccc(=N)cc1
EC50 (BJ [9]): 2.72 µM (active)
IC50 (Galanin receptor type 3): 1.28 µM (active)
AC50 (INS1): 0.293 µM (active)
AC50 [10]: 10.8 µM (active)
EC50 (BJ [11]): 2.85 µM (inconclusive)
EC50 (Streptokinase A): 17.6 µM (active)
EC50 [12]: 8.01 µM (active)
IC50 (Jurkat [13]): 0.92 µM (active)
IC50 [14]: 66.1 µM (inactive)
EC50 [15]: 3.09 µM (active)
EC50 (BJ [16]): 5.37 µM (inconclusive)
EC50 (Streptococcus): 10.3 µM (active)
EC50 (BJ [17]): 0.949 µM (active)
AC50 (Paired box protein Pax-8): 3.74 µM (active)
EC50 (cells [18]): > 29.9 µM (inactive)
AC50 [19]: 14.8 µM (active)

Cc1nn2c(NCCN(C)C)c3c(nc2c1-c1ccccc1)CCCC3
IC50 (cells [20]): 5.84 µM (active)
AC50 (CAAX prenyl protease 1): 4.57 µM (active)
AC50 (CAAX prenyl protease 2): 14.3 µM (active)
CC50 [21]: > 20 µM (active)
AC50 (Trypsin): 12.7 µM (active)
CC50 [22]: 16.4 µM (active)

COc1cccc2sc(Nc3nnc(-c4ccc(F)cc4)o3)nc12
IC50 (cells [20]): 15.3 µM (active)
CC50 [21]: 9.26 µM (active)
IC50 (Estrogen receptor): 25 µM (active)
EC50 [23]: > 160 µM (inconclusive)
EC50 [15]: 0.29 µM (active)
EC50 (Streptococcus): 2.25 µM (active)
CC50 [24]: 14.5 µM (active)
CC50 [22]: > 20 µM (active)
EC50 [25]: 1.72 µM (active)
IC50 [26]: 7.3 µM (active)

N[C@H](C(=O)O)c1nnn[nH]1
AC50 (Cytochrome P450 1A2): inconclusive
